Experimental data reported in patent publication US9963467B2, “Boronic acid derivatives and therapeutic uses thereof” (Rempex Pharmaceuticals, Inc., priority 2014, dated 2018).

How the values were obtained:
[1] = test system: EC1010 (CMY-6); test: Tigemonam potentiation (MPC@4), EC1010; type: cell-based; conditions: BLI with tigemonam at 4 μg/mL
[2] = test system: KP1004 (KPC-2); test: Biapenem potentiation (MPC@1), KP1004; conditions: BLI with biapenem at 1 μg/mL
[3] = Monomer content of pH adjusted aqueous solutions (LC-UV); type: physicochemical; conditions: pH adjusted to 7.6 to 8, LC-UV; for % Monomer in 1 mg/mL salt solution: 1 mg/mL aqueous salt solution
Method: Boronic acid containing compounds are known to undergo oligomerization. The presence of oligomers can greatly complicate drug development, as they represent new chemical species whose content must be controlled and qualified by testing in toxoicology studies. The monomer content of compounds was evaluated by adjusting aqueous solutions to physiological pH at various concentrations. The monomer content of pH adjusted solutions was measured using LC-UV. Test compounds were weighed out into a 1.5 mL Eppendorf tube. A solution of water was prepared in 1.00 mg/mL, 10.0 mg/mL or 100 mg/mL concentrations of the compound based on active fraction. A volume 20 uL was subtracted to allow room for addition of acid or base to adjust pH. The solution pH was measured. The pH was then adjusted through addition of acid or base as necessary until the reading was in the 7.6 to 8 range. A final pH measurement was made after ensuring all the compound was in solution. The solution was injected onto LC-UV in 0.1 uL to 5 uL volume within less than half an hour after the time the sample was prepared. Elution was done using 0.1% TFA in water for mobile phase A and 0.085% TFA in methanol for mobile phase B on an Excel ACE 5 Super C18 2.1×100 mm column at 0.6 ml/min flow rate with 9 min gradient, 3.9 minute hold at 90% B and 18 minute run time. The absorption was measured at 220, 254 and 300 nm with a 4 nm bandwidth.

[4] = test system: EC1010 (CMY-6); test: organism not typed; type: cell-based
[5] = target: SHV-12 (Klebsiella pneumoniae, UniProt P0AD64, E235K/G234S/L31Q); test: Ki, nitrocefin cleavage by purified enzyme, SHV-12; type: biochemical; conditions: nitrocefin reporter substrate; read-out: Ki (SHV-12, NCF)
Method: (§1) Purified enzymes were mixed with various concentrations of inhibitors in reaction buffer and incubated for 10 min at room temperature. Nitrocefin was added and substrate cleavage profiles were recorded at 490 nm every 10 sec for 10 min.

[6] = target: KPC-2 (Klebsiella pneumoniae, UniProt Q9F663); test: Ki, nitrocefin cleavage by purified enzyme, KPC-2; type: biochemical; conditions: nitrocefin reporter substrate; read-out: Ki (KPC-2, NCF)
Method: as §1

[7] = test system: KP1005 (CTX-M-14); test: Tigemonam potentiation (MPC@4), KP1005; type: cell-based; conditions: BLI with tigemonam at 4 μg/mL
[8] = test system: ECL1002; test: Aztreonam potentiation (MPC@4), ECL1002; type: cell-based; conditions: BLI with aztreonam at 4 μg/mL
[9] = test system: ec302 (TEM-10); test: Aztreonam potentiation (MPC@4), ec302; type: cell-based; conditions: BLI with aztreonam at 4 μg/mL
[10] = target: P99 (Enterobacter cloacae, UniProt P05364); test: Ki, nitrocefin cleavage by purified enzyme, P99; type: biochemical; conditions: nitrocefin reporter substrate; read-out: Ki (P99, NCF)
Method: as §1

[11] = test system: KP1009 (CTX-M-15); test: Tigemonam potentiation (MPC@4), KP1009; type: cell-based; conditions: BLI with tigemonam at 4 μg/mL
[12] = test system: ec302 (TEM-10); test: Tigemonam potentiation (MPC@4), ec302; type: cell-based
[13] = target: OXA-48 (Klebsiella pneumoniae, UniProt Q6XEC0); test: Ki, nitrocefin cleavage by purified enzyme, OXA-48; type: biochemical; conditions: nitrocefin reporter substrate; read-out: Ki (OXA-48, NCF)
Method: as §1

[14] = target: Pa AmpC (Pseudomonas aeruginosa, UniProt P24735); test: Ki, nitrocefin cleavage by purified enzyme, Pa AmpC; type: biochemical; conditions: nitrocefin reporter substrate; read-out: Ki (Pa AmpC, NCF)
Method: Ki values of inhibition of purified class A, C and D enzymes were determined spectrophotometrically using nitrocefin as reporter substrate. Purified enzymes were mixed with various concentrations of inhibitors in reaction buffer and incubated for 10 min at room temperature. Nitrocefin was added and substrate cleavage profiles were recorded at 490 nm every 10 sec for 10 min. These experiments confirmed that the described compounds are inhibitors with a broad-spectrum of activity towards various β-lactamases.

[15] = target: CTX-M-14 (Escherichia coli, UniProt Q9L5C7); test: Ki, nitrocefin cleavage by purified enzyme, CTX-M-14; type: biochemical; conditions: nitrocefin reporter substrate; read-out: Ki (CTX-M-14, NCF)
Method: as §1

[16] = test system: ECL1002; test: Tigemonam potentiation (MPC@4), ECL1002; type: cell-based; conditions: BLI with tigemonam at 4 μg/mL
[17] = test system: ec308 (SHV-5); test: Tigemonam potentiation (MPC@4), ec308; type: cell-based
[18] = test system: KP1086 (OXA-48); test: Biapenem potentiation (MPC@1), KP1086; conditions: BLI with biapenem at 1 μg/mL
[19] = test system: KP1010 (SHV-12); test: Tigemonam potentiation (MPC@4), KP1010; type: cell-based

OXA-48, sequence (Q6XEC0 23-265, looked up, species assumed): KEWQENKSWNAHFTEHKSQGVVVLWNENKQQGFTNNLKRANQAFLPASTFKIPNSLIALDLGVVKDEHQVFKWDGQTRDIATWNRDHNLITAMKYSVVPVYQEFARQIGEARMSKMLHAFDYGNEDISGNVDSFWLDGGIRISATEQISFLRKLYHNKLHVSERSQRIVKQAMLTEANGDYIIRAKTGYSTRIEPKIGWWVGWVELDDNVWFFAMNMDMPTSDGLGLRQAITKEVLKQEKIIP
Pa AmpC, sequence (P24735 27-397): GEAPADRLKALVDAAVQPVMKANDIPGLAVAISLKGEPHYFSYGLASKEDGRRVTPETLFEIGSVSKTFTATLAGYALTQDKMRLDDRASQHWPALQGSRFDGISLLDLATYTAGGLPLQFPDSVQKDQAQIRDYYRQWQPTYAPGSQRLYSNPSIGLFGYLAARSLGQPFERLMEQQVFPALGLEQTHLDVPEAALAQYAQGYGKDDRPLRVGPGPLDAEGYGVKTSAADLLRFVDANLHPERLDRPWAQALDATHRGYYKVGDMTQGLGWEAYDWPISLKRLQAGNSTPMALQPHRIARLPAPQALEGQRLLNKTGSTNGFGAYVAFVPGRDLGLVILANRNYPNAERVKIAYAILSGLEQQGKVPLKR
P99, sequence (P05364 21-381): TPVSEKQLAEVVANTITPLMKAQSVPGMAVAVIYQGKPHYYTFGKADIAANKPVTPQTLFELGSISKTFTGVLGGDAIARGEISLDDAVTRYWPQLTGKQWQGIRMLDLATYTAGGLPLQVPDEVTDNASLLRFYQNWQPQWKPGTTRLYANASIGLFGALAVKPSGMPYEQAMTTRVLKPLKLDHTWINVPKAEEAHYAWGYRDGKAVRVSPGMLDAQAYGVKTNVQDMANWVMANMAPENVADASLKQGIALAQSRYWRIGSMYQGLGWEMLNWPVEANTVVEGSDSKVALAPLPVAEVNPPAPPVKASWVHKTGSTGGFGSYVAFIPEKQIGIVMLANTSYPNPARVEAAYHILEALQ
KPC-2, sequence (Q9F663 25-293, looked up, species assumed): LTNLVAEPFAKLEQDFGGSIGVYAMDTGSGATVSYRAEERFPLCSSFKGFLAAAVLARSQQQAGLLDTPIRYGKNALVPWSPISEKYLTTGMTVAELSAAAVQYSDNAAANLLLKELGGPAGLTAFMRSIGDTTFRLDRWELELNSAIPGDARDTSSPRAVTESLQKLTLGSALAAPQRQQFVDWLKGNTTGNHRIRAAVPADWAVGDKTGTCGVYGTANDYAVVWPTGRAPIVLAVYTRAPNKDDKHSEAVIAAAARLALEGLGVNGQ
SHV-12, sequence (P0AD64 22-286 L31Q/G234S/E235K): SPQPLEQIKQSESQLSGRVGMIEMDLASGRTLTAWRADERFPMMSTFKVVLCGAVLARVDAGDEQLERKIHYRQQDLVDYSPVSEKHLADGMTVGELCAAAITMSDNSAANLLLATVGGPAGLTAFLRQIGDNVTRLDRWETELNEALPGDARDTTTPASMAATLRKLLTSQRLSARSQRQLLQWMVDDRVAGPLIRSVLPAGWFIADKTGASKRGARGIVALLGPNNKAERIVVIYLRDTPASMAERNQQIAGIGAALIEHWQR
CTX-M-14, sequence (Q9L5C7 29-291): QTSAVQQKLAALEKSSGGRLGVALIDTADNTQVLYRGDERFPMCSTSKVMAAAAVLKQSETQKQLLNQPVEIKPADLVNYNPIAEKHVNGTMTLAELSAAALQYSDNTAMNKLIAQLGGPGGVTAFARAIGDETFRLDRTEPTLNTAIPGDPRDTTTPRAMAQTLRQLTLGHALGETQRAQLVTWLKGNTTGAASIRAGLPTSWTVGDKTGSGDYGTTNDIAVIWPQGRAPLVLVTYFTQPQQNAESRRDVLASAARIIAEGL

SMILES	TIG MPC4 CMY-6 EC1010 [1]	BPM MPC1 KP1004 KPC-2 [2]	% Monomer in 1 mg/mL salt solution [3]	AZT MPC4 CMY-6 EC1010 [4]	Ki [5]	Ki [6]	TIG MPC4 CTX-M-14 KP1005 [7]	AZT MPC4 ECL1002 [8]	AZT MPC4 TEM-10 ec302 [9]	Ki [10]	TIG MPC4 CTX-M-15 KP1009 [11]	TIG MPC4 TEM-10 ec302 [12]	Ki [13]	Ki [14]	Ki [15]	TIG MPC4 ECL1002 [16]	TIG MPC4 SHV-5 ec308 [17]	BPM MPC1 OXA-48 KP1086 [18]	TIG MPC4 SHV-12 KP1010 [19]	further results
NC(=O)CC(=O)N[C@H]1Cc2ccc(F)c(C(=O)O)c2OB1O [Compound 5, (R)-3-(3-amino-3-oxopropanamido)-7-fluoro-2-hydroxy-3,4-dihydro-2H-benzo[e][1,2]oxaborinine-8-carboxylic acid]	X (MIC of less than 1 μg/mL)	X (MIC of less than 1 μg/mL)	98.5%	Y (key: X: MIC of less than 1 ng/mL; Y: MIC of 1 μg/mL to 10 μg/mL; Z: MIC of greater than 10 μg/mL)	< 1 nM	> 10 nM	Y (MIC of 1 μg/mL to 10 μg/mL)	Y (MIC of 1 μg/mL to 10 μg/mL)	Y (MIC of 1 μg/mL to 10 μg/mL)	> 10 nM	X (MIC of less than 1 μg/mL)	Z (key: X: MIC of less than 1 ng/mL; Y: MIC of 1 μg/mL to 10 μg/mL; Z: MIC of greater than 10 μg/mL)	< 1 nM	> 10 nM	< 1 nM	X (MIC of less than 1 μg/mL)	X (key: X: MIC of less than 1 μg/mL; Y: MIC of 1 μg/mL to 10 μg/mL; Z: MIC of greater than 10 μg/mL)	Y (MIC of 1 μg/mL to 10 μg/mL)	X (key: X: MIC of less than 1 μg/mL; Y: MIC of 1 μg/mL to 10 μg/mL; Z: MIC of greater than 10 μg/mL)	
CNC(=O)CC(=O)N[C@H]1Cc2ccc(F)c(C(=O)O)c2OB1O [Compound 7, (R)-7-fluoro-2-hydroxy-3-(3-(methylamino)-3-oxopropanamido)-3,4-dihydro-2H-benzo[e][1,2]oxaborinine-8-carboxylic acid]	X (MIC of less than 1 μg/mL)	X (MIC of less than 1 μg/mL)	97.1%	Y (key: X: MIC of less than 1 ng/mL; Y: MIC of 1 μg/mL to 10 μg/mL; Z: MIC of greater than 10 μg/mL)	< 1 nM	> 10 nM	Y (MIC of 1 μg/mL to 10 μg/mL)	Y (MIC of 1 μg/mL to 10 μg/mL)	Y (MIC of 1 μg/mL to 10 μg/mL)	> 10 nM	X (MIC of less than 1 μg/mL)	Z (key: X: MIC of less than 1 ng/mL; Y: MIC of 1 μg/mL to 10 μg/mL; Z: MIC of greater than 10 μg/mL)	1 to 10 nM	> 10 nM	< 1 nM	X (MIC of less than 1 μg/mL)	X (key: X: MIC of less than 1 μg/mL; Y: MIC of 1 μg/mL to 10 μg/mL; Z: MIC of greater than 10 μg/mL)	Y (MIC of 1 μg/mL to 10 μg/mL)	X (key: X: MIC of less than 1 μg/mL; Y: MIC of 1 μg/mL to 10 μg/mL; Z: MIC of greater than 10 μg/mL)	
CSCC(=O)N[C@H]1Cc2ccc(SC)c(C(=O)O)c2OB1O [Compound 10, (R)-2-hydroxy-7-(methylthio)-3-(2-(methylthio)acetamido)-3,4-dihydro-2H-benzo[e][1,2]oxaborinine-8-carboxylic acid]	X (MIC of less than 1 μg/mL)	X (MIC of less than 1 μg/mL)	87.5%	Y (key: X: MIC of less than 1 ng/mL; Y: MIC of 1 μg/mL to 10 μg/mL; Z: MIC of greater than 10 μg/mL)	< 1 nM	> 10 nM	Y (MIC of 1 μg/mL to 10 μg/mL)	Y (MIC of 1 μg/mL to 10 μg/mL)	Y (MIC of 1 μg/mL to 10 μg/mL)	> 10 nM	X (MIC of less than 1 μg/mL)	Y (key: X: MIC of less than 1 ng/mL; Y: MIC of 1 μg/mL to 10 μg/mL; Z: MIC of greater than 10 μg/mL)	1 to 10 nM		< 1 nM	X (MIC of less than 1 μg/mL)	X (key: X: MIC of less than 1 μg/mL; Y: MIC of 1 μg/mL to 10 μg/mL; Z: MIC of greater than 10 μg/mL)	Z (MIC of greater than 10 μg/mL)	X (key: X: MIC of less than 1 μg/mL; Y: MIC of 1 μg/mL to 10 μg/mL; Z: MIC of greater than 10 μg/mL)	
COc1ccc2c(c1C(=O)O)OB(O)[C@@H](NC(=O)CSC)C2 [Compound 12, (R)-2-hydroxy-7-methoxy-3-(2-(methylthio)acetamido)-3,4-dihydro-2H-benzo[e][1,2]oxaborinine-8-carboxylic acid]	X (MIC of less than 1 μg/mL)	X (MIC of less than 1 μg/mL)	98.2%		< 1 nM	> 10 nM	X (MIC of less than 1 μg/mL)		X (MIC of less than 1 ng/mL)	> 10 nM	X (MIC of less than 1 μg/mL)	Y (key: X: MIC of less than 1 ng/mL; Y: MIC of 1 μg/mL to 10 μg/mL; Z: MIC of greater than 10 μg/mL)	< 1 nM	> 10 nM	< 1 nM	X (MIC of less than 1 μg/mL)	X (key: X: MIC of less than 1 μg/mL; Y: MIC of 1 μg/mL to 10 μg/mL; Z: MIC of greater than 10 μg/mL)	Y (MIC of 1 μg/mL to 10 μg/mL)	X (key: X: MIC of less than 1 μg/mL; Y: MIC of 1 μg/mL to 10 μg/mL; Z: MIC of greater than 10 μg/mL)	% Monomer in 10 mg/mL salt solution ([3]; 10 mg/mL aqueous salt solution): 95.5%; % Monomer in 100 mg/mL salt solution ([3]; 100 mg/mL aqueous salt solution): 96.5%
